Each structure is given as a SMILES string. pKi: −log10 of the molar value.

In the first test the target is T1, human GAL3 receptor (Homo sapiens, UniProt O60755).
T1 construct: expressed in transfected cells
T1 sequence (O60755 1-368): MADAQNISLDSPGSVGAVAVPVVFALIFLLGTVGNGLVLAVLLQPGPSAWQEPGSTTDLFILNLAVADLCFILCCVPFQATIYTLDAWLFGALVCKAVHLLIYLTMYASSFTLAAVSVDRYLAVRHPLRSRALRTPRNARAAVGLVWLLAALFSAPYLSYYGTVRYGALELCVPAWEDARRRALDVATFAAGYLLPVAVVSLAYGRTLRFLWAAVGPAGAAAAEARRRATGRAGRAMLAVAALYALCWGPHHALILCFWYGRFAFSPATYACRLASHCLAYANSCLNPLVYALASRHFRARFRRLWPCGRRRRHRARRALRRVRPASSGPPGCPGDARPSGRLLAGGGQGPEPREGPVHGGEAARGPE
The test can be described thus: Radioligand binding at cloned human GAL3 receptor. Conditions: indolones, cloned human receptor; read-out: Ki GalR3. The method, then: The present invention provides for a method of determining the binding affinity of a GAL3 antagonist, wherein the GAL3 antagonist is dissolved in a "suitable solvent". A "suitable solvent" means one which permits the measurement of binding affinity of the GAL3 antagonist to the human GAL3 receptor at concentrations less than 1 µM, preferably less than 100 nM. Examples of solvents include, but are not limited to, DMSO, ethanol, N,N-dimethylacetamide, or water. For indolones, the preferred solvent is 3% DMSO (final concentration in the assay). For pyrimidines, the preferred solvent is 1% ethanol/0.09% polypuronic acid F-127 (final concentration in the assay). For any other type of compounds, the preferred solvent is the solvent which permits the measurement of binding affinity of a GAL3 antagonist at the lowest concentration. Once a suitable solvent is ascertained for the binding assay of the human GAL3 receptor, the same solvent is used in assays to determine the binding affinity at the GAL1 receptor, the serotonin transporter, the norepinephrine transporter, and the dopamine transporter. A solvent of 0.4% DMSO is used in the central monoamine oxidase enzyme assay.
The binding properties of the pyrimidines of the present invention were evaluated at the cloned human galanin receptors, GAL1, GAL2, and GAL3, using protocols described herein.
The binding properties of the indolones of the present invention were evaluated at the cloned human galanin receptors, GAL1, GAL2, and GAL3, using protocols described herein.
LM(tk-) cells were stably transfected with the human GAL1 or GAL3 receptor. CHO cells were stably transfected with the human GAL2 receptor.
cDNAs for the human and rat GAL1, and human and rat GAL3 receptors were transfected with a G-418 resistant gene into the mouse fibroblast LM(tk-) cell line by a calcium phosphate transfection method (Cullen, 1987). Stably transfected cells were selected with G-418. Human and rat GAL2 receptors were similarly transfected into CHO cells.
Membranes were harvested from stably transfected LM(tk-) cells. Adherent cells were washed twice in ice-cold phosphate buffered saline (138 mM NaCl, 8.1 mM Na2HPO4, 2.5 mM KCl, 1.2 mM KH2PO4, 0.9 mM CaCl2, 0.5 mM MgCl2, pH 7.4) and lysed by sonication in ice-cold sonication buffer (20 mM Tris-HCl, 5 mM EDTA, pH 7.7). Large particles and debris were cleared by low speed centrifugation (200 x g, 5 min, 4°C). Membranes were collected from the supernatant fraction by centrifugation (32,000 x g, 18 min, 4°C), washed with ice-cold hypotonic buffer, and collected again by centrifugation (32,000 x g, 18 min, 4°C). The final membrane pellet was resuspended by sonication into a small volume of ice-cold binding buffer (-1 ml for every 5 plates: 10 mM NaCl, 20 mM HEPES, 0.22 mM KH2PO4, 1.26 mM CaCl2, 0.81 mM MgSO4, pH 7.4). Protein concentration was measured by the Bradford method (Bradford, 1976) using Bio-Rad Reagent, with bovine serum albumin as a standard. Membranes were held on ice for up to one hour and used fresh, or flash frozen and stored in liquid nitrogen. Membranes were prepared similarly from CHO cells.
Galanin Recentors: Binding assays were performed according to the following published methods: human GAL3 (PCT International Publication No. WO 98/15570), human GAL1 (PCT International Publication No. WO 95/2260), human GAL2 (PCT International Publication No. WO 97/26853).
Binding data were analyzed using nonlinear regression and statistical techniques available in the GraphPAD Prism package (San Diego, CA). Enzymatic assay data were derived from a standard curve of reference compound data.
What is called pKi is the negative decadic logarithm of the Ki, by convention in mol/L. For `CCOC(=O)c1cccc(/N=C2\C(=O)N(c3ccsc3)c3ccccc32)c1` [Example 266, ETHYL 3-{[(3Z)-2-OXO-1-(3-THIENYL)-1,2-DIHYDRO-3H-INDOL-3-YLIDENE]AMINO}BENZOATE], the negative-log Ki (pKi) was 6.63. Regarding `COc1ccc(/N=C2\C(=O)N(c3ccccc3)c3ccccc32)c(OC)c1` [Example 287, (3Z)-3-[(2,4-DIMETHOXYPHENYL)IMINO]-1-PHENYL-1,3-DIHYDRO-2H-INDOL-2-ONE], the negative-log Ki (pKi) was 6.59. On to `O=C1/C(=N\c2ccc3ccccc3c2)c2ccccc2N1c1ccsc1` [Example 260, (3Z)-3-(2-NAPHTHYLIMINO)-1-(3-THIENYL)-1,3-DIHYDRO-2H-INDOL-2-ONE], for which the negative-log Ki (pKi) was 7.22.

Turning to `O=C1C(=Nc2cccc(C(F)(F)F)c2)c2ccccc2N1Cc1ccc(Cl)s1` (mixture of isomers) [Example 108, 1-[(5-CHLORO-2-THIENYL)METHYL]-3-{[3-(TRIFLUOROMETHYL)PHENYL]IMINO}-1,3-DIHYDRO-2H-INDOL-2-ONE], the pKi was 7.08. Same read-out and setting: next, `Cc1ccc(/N=C2\C(=O)N(c3ccsc3)c3ccccc32)cc1` [Example 263]: 6.87. Same read-out and setting: next, `O=C1/C(=N\c2ccc(-c3ccsc3)cc2)c2ccccc2N1c1ccccc1` [Example 304, (3Z)-1-PHENYL-3-{[4-(3-THIENYL)PHENYL]IMINO}-1,3-DIHYDRO-2H-INDOL-2-ONE]: 6.14. In the case of `COc1ccc2c(c1)N(c1ccccc1)C(=O)/C2=N\c1cccc(Cl)c1` [Example 302, (3Z)-3-[(3-CHLOROPHENYL)IMINO]-6-METHOXY-1-PHENYL-1,3-DIHYDRO-2H-INDOL-2-ONE], the negative-log Ki (pKi) was 6.82. For the compound `COc1ccc2c(c1)N(c1ccccc1)C(=O)/C2=N\c1ccc(Cl)c(Cl)c1` [Example 258, (3Z)-3-[(3,4-DICHLOROPHENYL)IMINO]-6-METHOXY-1-PHENYL-1,3-DIHYDRO-2H-INDOL-2-ONE], the pKi is 7.17. Take `O=C1/C(=N\c2cccc(Br)c2)c2ccccc2N1c1ccccc1` [Example 307, (3Z)-3-[(3-BROMOPHENYL)IMINO]-1-PHENYL-1,3-DIHYDRO-2H-INDOL-2-ONE]: the negative logarithm of the Ki (pKi) was 7.39. Turning to `O=C1/C(=N\c2ccc(-c3cccnc3)cc2)c2ccccc2N1c1ccccc1` [Example 306], the pKi is 6.80.

The same test, now with this note: pyrimidines, cloned human receptor; read-out: Ki GalR3.
With `COc1cccc(CN2CCN(c3nc(Nc4cccc(OC)c4)cc(N(C)C)n3)CC2)c1` [Example 148], the pKi was 6.56.

Turning to `COc1cccc(Nc2cc(N(C)C)nc(N3CCN(Cc4ccccc4OC)CC3)n2)c1` [Example 166], the pKi is 6.58. Turning to `CN(C)c1cc(Nc2cccc(O)c2)nc(N2CCN(Cc3ccccc3)CC2)n1` [Example 155], the pKi is 6.50. On to `CN(C)c1cc(Nc2cccc(Cl)c2)nc(N2CCN(c3ccccn3)CC2)n1` [Example 224], for which the pKi was 6.66.

Take `COc1ccc(CN2CCN(c3nc(Nc4ccc(C)cc4)cc(N(C)C)n3)CC2)cc1` [Example 235]: the pKi was 6.94. In the case of `Cc1ccc(Nc2cc(N3CCC(=O)CC3)nc(N3CCN(Cc4ccccc4)CC3)n2)cc1` [Example 184], the negative logarithm of the Ki (pKi) is 6.79.

For `CN(C)c1cc(Nc2ccccc2Cc2ccccc2)nc(N2CCN(c3ccccn3)CC2)n1` [Example 186], the pKi was 7.16.

For the compound `CN(C)c1cc(Nc2ccc(Br)cc2Cl)nc(N2CCN(c3ccccn3)CC2)n1` [Example 217], the pKi is 6.72. Still for that read-out and setting: under `CN(C)c1cc(Nc2ccc(Cl)c(Cl)c2Cl)nc(N2CCN(Cc3ccccc3)CC2)n1` [Example 230] stands 7.28; under `CN(C)c1cc(Nc2ccc(Cl)cc2)nc(N2CCN(Cc3ccccc3)CC2)n1` [Example 171], 7.60; under `CN(C)c1cc(NC2CCC(OCc3ccccc3)CC2)nc(N2CCN(Cc3ccccc3)CC2)n1` (stereo not drawn) [Example 152], 6.76. With `CN(C)c1cc(Nc2ccc(C3CCCCC3)cc2)nc(N2CCN(c3cnccn3)CC2)n1` [Example 178], the pKi was 7.59. Take `COc1cccc(Nc2cc(N(C)C)nc(N3CCN(c4ccccn4)CC3)n2)c1` [Example 245]: the pKi is 6.27. For the compound `CCOc1cccc(Nc2cc(N(C)C)nc(N3CCN(c4ccccn4)CC3)n2)c1` [Example 135], the pKi was 7.00.

As to `Cc1ccc(Nc2cc(N3CCCCC3)nc(N3CCc4ccccc43)n2)cc1` [Example 39], the pKi was 6.89. For the compound `CN(C)c1cc(NC2CCCCCCC2)nc(N2CCN(Cc3ccccc3)CC2)n1` [Example 170], the pKi is 7.04. Regarding `Cc1ccc(Nc2cc(N(C)C)nc(N3CCN(CC4CCCO4)CC3)n2)cc1` (stereo not drawn) [Example 154], the pKi was 6.36. For `CN(C)c1cc(Nc2ccc(Cl)cc2)nc(N2CCN(c3ccccn3)CC2)n1` [Example 194], the pKi is 6.61. On to `CN(C)c1cc(Nc2cc(F)c(F)c(F)c2)nc(N2CCN(c3ccccn3)CC2)n1` [Example 221], for which the pKi is 6.67. Turning to `COc1cc(Nc2cc(N(C)C)nc(N3CCN(c4ccccn4)CC3)n2)cc(OC)c1` [Example 202], the pKi was 6.13. With `CN(C)c1cccc(Nc2cc(N(C)C)nc(N3CCN(Cc4ccccc4)CC3)n2)c1` [Example 126], the pKi was 7.00. In the case of `COc1ccc(C(F)(F)F)cc1Nc1cc(N(C)C)nc(N2CCN(Cc3ccccc3)CC2)n1` [Example 226], the pKi was 7.14. As to `Cc1ccc(Nc2cc(N(C)C)nc(NCCNc3ccccc3)n2)cc1` [Example 176], the pKi is 6.22.

With `CN(C)c1ccc(Nc2cc(N(C)C)nc(N3CCN(Cc4ccccc4)CC3)n2)cc1` [Example 158], the pKi is 6.03. Take `COCCN(CCOC)c1nc(Nc2ccc(C)cc2)cc(N2CCCCC2)n1` [Example 45]: the pKi was 6.30. As for `CN(C)c1cc(NC2CCCCCC2)nc(N2CCN(Cc3ccccc3)CC2)n1` [Example 128], the pKi was 6.60. Turning to `COc1cc(Nc2cc(N(C)C)nc(N3CCN(c4ccccn4)CC3)n2)cc(C(F)(F)F)c1` [Example 197], the negative-log Ki (pKi) is 6.18.

As to `CN(C)c1cc(Nc2cccc(F)c2)nc(Nc2ccccc2)n1` [Example 57], the pKi was 6.44.

`CN(C)c1cc(Nc2cccc(F)c2)nc(N2CCN(Cc3ccccc3)CC2)n1` [Example 164]: the pKi is 7.22. With `Cc1ccc(Nc2nc(Nc3cccc(C)c3)cc(N(C)C)n2)cc1` [Example 53], the pKi is 6.01.

For the compound `COc1ccccc1CN1CCN(c2nc(Nc3ccc(C)cc3)cc(N(C)C)n2)CC1` [Example 175], the negative-log Ki (pKi) is 7.25. As to `FC(F)(F)c1cccnc1N1CCN(c2nc(NC3CCCCC3)cc(N3CCCCC3)n2)CC1` [Example 35], the pKi is 6.95. `CN(C)c1cc(NC2C3(C)CCC(C3)C2(C)C)nc(N2CCN(Cc3ccccc3)CC2)n1` (stereo not drawn) [Example 130]: the pKi was 7.00. With `Cc1cccc(Nc2cc(N(C)C)nc(N3CCN(c4ccccn4)CC3)n2)c1C` [Example 215], the negative logarithm of the Ki (pKi) was 6.35. Take `COc1cccc(CN2CCN(c3nc(Nc4ccc(C)cc4)cc(N(C)C)n3)CC2)c1` [Example 142]: the negative-log Ki (pKi) was 7.55. Consider `CN(C)c1cc(Nc2ccccc2)nc(Nc2ccccc2)n1` [Example 50], for which the pKi is 6.16. Take `CN(C)c1cc(Nc2cc(F)c(F)cc2F)nc(N2CCN(c3ccccn3)CC2)n1` [Example 219]: the pKi was 6.25. For the compound `CN(C)c1cc(Nc2cncc3ccccc23)nc(N2CCN(c3ccccn3)CC2)n1` [Example 120], the pKi is 6.18.

For the origin of these results see patent publication EP2140864A2 (H. Lundbeck A/S, priority 2001, dated 2002).
